In patent publication US20260227408A1, “Compositions and Methods for Modulation of Immune Responses” (Flagship Pioneering Innovations VI, LLC, priority 2022, published 2026):

Key:
[1] = tested on: Peripheral Blood Mononuclear Cells; assay: PBMC cytokine release by CBA, Activation format (peptide alone); format: cell-based, human; set-up: key: X = a hit with significant activation or inhibition of relevant cytokine release; conditions: peptide applied to PBMCs alone; supernatant CBA after 24 hours
Protocol: (§1) CBA (Cytometry) experiment looking at pro-inflammatory cytokines produced by PBMCs treated with secreted peptides.
(§2) Peripheral Blood Mononuclear Cells were seeded+/−the T-cell activator […] and +/−peptides for 24-48 hours. Cytokines were measured from the supernatant after incubation by CBA Cytometer.
(§3) Thawing PBMCs: PBMCs were thawed by pre-warming TexMACS media (Miltenyi Biotech) in 20 ml aliquots-1-50 ml conical per donor. After the media was warmed to 37° C., cells were removed from liquid nitrogen and brought to the tissue culture hood. For each donor, 1 ml of media from the warmed aliquot was added to the frozen vial and mixed up and down. The media plus thawed cells were then added back to the 50 ml conical. This was repeated until all the cells were thawed and added to the 50 ml tube. Continue with other donors if used. Spin cells for 5 min at 400×g. Supernatant was aspirated and cells resuspended at ~10*10^6 cells/ml (see vial for cell number).
(§4) PBMC Plating: Frozen PBMCs from normal, healthy, human volunteers (StemCell Technologies) were thawed and plated at 250,000 cells/well. After PBMCs were thawed and resuspended at […], cells were then counted (Countess III, Thermo Scientific) and adjusted based on counts to […]. Take the number of PBMCs determined by number of wells for the experiment, for example, 10 wells would need 2.5*10^6 cells total or 0.250 ml. The cells needed for the experiment are then transferred to another conical tube. Warmed TexMACS media is added so that the final concentration is 250,000 cells/190 ul media, for example, 10 wells would need 1.9 ml (190 ul×10 wells) of media total minus 0.250 ml of cells (1.9 ml-0.250 ml) or 1.65 ml of media added to the 0.250 ml of cells. Add 190 ul of cells plus media to the 96 well U-bottom plate. Place in incubator until dilutions are made and ready.
(§5) Peptide Dilutions: Ideally, all peptides should be at a starting concentration of at least 10 mM, especially for those in DMSO (ATCC) to reach a final concentration of 1 uM (H2O) or 0.5 uM (DMSO). Dilutions of all test articles should be made at 20× the final concentration, for example, a final concentration of 1 uM peptide would need to be made at 20 uM.
(§6) Reagent Dilution: Dilutions are made in TexMACS media, enough for 10 ul/well in triplicate (30 ul of a 20×). Activator—CD3/CD28 (TransAct; Miltenyi Biotech) or cytokine will be at 21× and added after the 45-minute incubation with peptides. Be sure to include relevant controls—Positive: TransAct+Cells, Negative: Vehicle+Cells. Dilutions should also be made in a ultra-low binding plate (Corning).
(§7) Assay Procedure: Peptide Treatment: Start assay by thawing the cells and plating in a 96 well, U-bottom tissue culture plate (Corning) as described above. Cell plates are placed in a tissue culture incubator (5% CO2, 37° C.). While cells are in the incubator, start making dilutions (optimally 1 hr or less) as described above. Cell plates are removed from the incubator and 10 ul of the 20× dilutions are added to the relevant wells. After the addition of inhibitors, cell plates are placed in the tissue culture incubator for 45 minutes. The plates are removed from the incubator and 10 ul of […] TransAct is added to the relevant wells*. Plates are then returned to the incubator and incubated for 24 hours. After 24 hours, plates are spun for 5 minutes at 400×g. * Activation: This assay can be run in two different formats—Activation and Inhibition. The procedure is the same except no TransAct is needed in the peptide wells for Activation. TransAct is only needed in the control wells. The purpose of this procedure is to determine the possible response from peptides alone.
(§8) Cytometric BeadArray (CBA): After the spin, supernatants (~150 ul) are transferred to a new, ultra-low binding U-bottom plate. Supernatants are then frozen at −20° C. until thawed for CBA (BD) to determine levels of human IL-2, TNFa, IL-1b, IP-10, IL-10, and IFNg. […]

[2] = tested on: CD3/CD28 (TransAct) activated PBMCs; assay: PBMC cytokine release by CBA, Inhibition format (peptide with CD3/CD28 TransAct activator); format: cell-based, human; set-up: key to Inhibition by Analyte IL-1b / Inhibition by Analyte IL-2 / Inhibition by Analyte TNF / Inhibition by Analyte IP-10 / Inhibition by Analyte IL-10: X = a hit with significant activation or inhibition of relevant cytokine release
Protocol: as §1, §2, §3, §4, §5, §6, §7, §8

[3] = peptide applied with anti-CD3/CD28 T-cell activator, supernatant CBA after 24 hours

Molecule: SEQ ID NO: 33678: target protein of the Sequence Listing, applied as peptide to PBMCs (METSCSLWVSSELFCRSVKVFFCLLALHLSALPHSSWTQDKNLGLAGMVELK; listed as Homo sapiens)
- Activation by Analyte IP-10 [1]: X

Molecule: SEQ ID NO: 33885: Target Protein validated as an anti-inflammatory immune modulator (VAEPRRGHLKAALASLGGAAPAAATNGSPPLFK; listed as Homo sapiens)
- release of TNF-alpha from activated PBMCs ([2]; CD3/CD28 (TransAct) activated PBMCs, FIG. 1): significantly blocks
- release of IL-1b from activated PBMCs ([2]; CD3/CD28 (TransAct) activated PBMCs, FIG. 2): does not block
- Inhibition by Analyte IL-1b [2, 3]: X
- Inhibition by Analyte IL-2 [2, 3]: X
- Inhibition by Analyte IP-10 [2, 3]: X
- Inhibition by Analyte TNF [2, 3]: X

Molecule: SEQ ID NO: 33934: target protein of the Sequence Listing, applied as peptide to PBMCs (MSFDHPEKNGPWPADPINLPSHG; listed as Homo sapiens)
- Inhibition by Analyte IL-2 [2, 3]: X
- Inhibition by Analyte TNF [2, 3]: X

Molecule: SEQ ID NO: 34837: target protein of the Sequence Listing, applied as peptide to PBMCs (MRSPLSASALLLWSSSVARAFSSPSLLMAVPSPTCSRY; listed as Homo sapiens)
- Inhibition by Analyte IL-1b [2, 3]: X
- Inhibition by Analyte IL-10 [2, 3]: X
- Inhibition by Analyte IP-10 [2, 3]: X
- Inhibition by Analyte TNF [2, 3]: X

Molecule: SEQ ID NO: 35373: target protein of the Sequence Listing, applied as peptide to PBMCs (LDFIRAFLLLLVASVPGKIGSQNLTAQRPPVATSFLQMESSEPTVRK; listed as Homo sapiens)
- Inhibition by Analyte IL-1b [2, 3]: X
- Inhibition by Analyte IL-2 [2, 3]: X
- Inhibition by Analyte IP-10 [2, 3]: X
- Inhibition by Analyte TNF [2, 3]: X

Molecule: SEQ ID NO: 35558: target protein of the Sequence Listing, applied as peptide to PBMCs (MTAFGLGIPTFLVMQPSGSQPRFPALTQNGVALVRTPLTSVYLRVRICRVLGPRSQPS; listed as Homo sapiens)
- Inhibition by Analyte IL-1b [2, 3]: X
- Inhibition by Analyte TNF [2, 3]: X
- Activation by Analyte IL-10 [1]: X
- Activation by Analyte IP-10 [1]: X

Molecule: SEQ ID NO: 37043: target protein of the Sequence Listing, applied as peptide to PBMCs (MSEVATLLFSQTALASLESVHPAGHKLWMRNLRQVTSP; listed as Homo sapiens)
- Inhibition by Analyte IL-2 [2, 3]: X
- Inhibition by Analyte TNF [2, 3]: X

Molecule: SEQ ID NO: 37192: target protein of the Sequence Listing, applied as peptide to PBMCs (MVSHRKDWRRVNLRFSSCLLLSICLDDKPSADELCFWTDHGRSQLTCPSLGVSQGHARSS; listed as Homo sapiens)
- Activation by Analyte IP-10 [1]: X

Molecule: SEQ ID NO: 37363: target protein of the Sequence Listing, applied as peptide to PBMCs (MGGKSWLFFYSLVFCALLPLPRREDPFKLF; listed as Homo sapiens)
- Inhibition by Analyte IL-1b [2, 3]: X

Molecule: SEQ ID NO: 37375: target protein of the Sequence Listing, applied as peptide to PBMCs (MARPLSLAAAGAPDLLFTALCSLLIEAQPLRPFDLQVLGDPQPRARTP; listed as Homo sapiens)
- Activation by Analyte IL-2 [1]: X

Molecule: SEQ ID NO: 37394: target protein of the Sequence Listing, applied as peptide to PBMCs (MESRTLLLLFSGAVALIQTWADYNYNQGRNDLIFTLQLWKRQ; listed as Homo sapiens)
- Inhibition by Analyte IL-1b [2, 3]: X

Molecule: SEQ ID NO: 38042: target protein of the Sequence Listing, applied as peptide to PBMCs (MWWKTPCWWTPSTTATSSSAEARSCGRLLKSMAG; listed as Homo sapiens)
- Activation by Analyte IP-10 [1]: X

B1: SEQ ID NO: 33169: target protein of the Sequence Listing, applied as peptide to PBMCs (peptide, listed as Homo sapiens)
chain: MCHKGWHGPGVPHHVAFTPCKARLRPATQCQAHSSPRRKMVQAGSIPLAAASGRLCLTHAGWWRGAS
- Activation by Analyte IP-10 [1]: X

B2: SEQ ID NO: 35480: target protein of the Sequence Listing, applied as peptide to PBMCs (peptide, listed as Homo sapiens)
chain: LRPRSAAFAPRYTRLVMRRSSRSFRLQCTGFPSSSAQSISAHLSNSMPSSLLTISRCPGMFAVRCPL
- Activation by Analyte IP-10 [1]: X

B3: SEQ ID NO: 36902: target protein of the Sequence Listing, applied as peptide to PBMCs (peptide, listed as Homo sapiens)
chain: MQRLPAAFFRSFAAQGLGESVHINTPTSLSLRGRPFISSSGPGARARVTCAPCLHAARILCCFWRGLHR
- Activation by Analyte IP-10 [1]: X

B4: SEQ ID NO: 37047: target protein of the Sequence Listing, applied as peptide to PBMCs (peptide, listed as Homo sapiens)
chain: MMAQKSKFRVLFMSDPHGTAMPLTSAILESSRASLAAKQEDKCFTDIRNLKWKHFLEHTKQPP
- Activation by Analyte IP-10 [1]: X

B5: SEQ ID NO: 37477: target protein of the Sequence Listing, applied as peptide to PBMCs (peptide, listed as Homo sapiens)
chain: MSCGSRRGPSLASSLAWLQLQSGTRPFCSSSPPYFLSHGRRIPFSHPRKESALRATKEPRTHRTNTSLADLPSPAPAHL
- Activation by Analyte IL-1b [1]: X

B6: SEQ ID NO: 38393: target protein of the Sequence Listing, applied as peptide to PBMCs (peptide, listed as Homo sapiens)
chain: VALSLLTSQGRQRRAGPSTAFAALPATVATFSAMTESESLRTSRHADTALARVRRGAKFRGQARTRYCARARSHRFTPPSGA
- Activation by Analyte IP-10 [1]: X

B7: SEQ ID NO: 33741: target protein of the Sequence Listing, applied as peptide to PBMCs (peptide, listed as Homo sapiens)
chain: MSYLPTNPPGSILTCWLGVSLGSHRSARGGSTIYGRLLPRRKDVWFSQAKDVPKYRGLLYLQS
- Activation by Analyte IP-10 [1]: X
